In article PMC5485657 (The Journal of Venomous Animals and Toxins Including …, 2017):
Ends that are not written are not given here.

How the values were obtained:
[1] = tested on: BK-induced rat paw edema; assay: Bradykinin-potentiating activity in vivo (rat paw edema); design: species or system Male Wistar rats; conditions: intraplantar BK 40 ng/mL (2 ng in 50 μL saline)
Method: Male Wistar (200 g-250 g) rats, bred at the Nuclear and Energy Research Institute (IPEN), São Paulo, SP, Brazil were used for the in vivo assays. The animals had access to food and water ad libitum, and were kept under a 12 h-light/dark cycle. Procedures involving animals and their care were in accordance with the guidelines for the use of animals on biomedical research and were approved by the Animal Ethics Committee (protocol 171/16) of IPEN.
Edema was induced by intraplantar injection of 2 ng of BK diluted in 50 μL saline into the left hind paw, which was measured every 5 min for 40 min by a plethysmograph (H. Basile, Italy). The right paw was injected with 50 μL […] saline (NaCl 0.9% w/v). In parallel, a group was injected with the synthetic potentiating peptide (40 ng/mL) in the left paw 10 min before the injection of BK, in order to evaluate the potentiation of BK. In both cases, the volume of the right paw was subtracted from that of volume of the left paw, to give net edema, expressed in μL.
One-way analysis of variance (ANOVA) was performed. The significance level was considered as p < 0.05.

[2] = tested on: paw edema; design: method as in PMID 15688321; conditions: previous study, similar approach; cited from earlier work

Substance	time at which induced edema was detectable ([1]; plethysmograph)	time course of edema (in words) ([1]; plethysmograph every 5 min for 40 min)	paw edema (in words) [2]
Bradykinin (RPPGFSPFR; also: acetate salt; UniProt P01042 381-389, looked up) [BK]	5 min	declined at a constant rate over the next 40 min	–
QWAQWPRPQIPP [BPP9a, B. jararaca BPP9a]	–	–	intense and fast paw edema
